Measurements published in patent publication US20060089395A1, “Nf-kb activation inhibitors” (priority 2002, published 2006).
Like-named read-outs stand apart in the source and are kept apart here.

Tested on: NF-κ B
Assay: Inhibitory activity of NF-κ B activation, luciferase reporter assay in HepG2 under TNF-α stimulation
Type: cell-based, human
Procedure, shortened: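 Readout is firefly luciferase luminescence, expressed as inhibition versus compound-free wells. Before this, HepG2 cells carrying a transiently transfected 5×NF-κB-site luciferase plasmid (6–24 h post-transfection) received test compound plus TNF-α (40 ng/ml) for 4 h.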

[1] = 1 μg/mL, HepG2, TNF-α (40 ng/ml), 4 hours
[2] = 10 μg/mL, HepG2, TNF-α (40 ng/ml), 4 hours
[3] = Homo sapiens, 1 μg/mL, HepG2, TNF-α (40 ng/ml), 4 hours, read-out: Inhibitory Ratio of NF-κ B Activation(%) Drug Concentration 1 μg/mL
[4] = Homo sapiens, 10 μg/mL, HepG2, TNF-α (40 ng/ml), 4 hours, read-out: Inhibitory Ratio of NF-κ B Activation(%) Drug Concentration 10 μg/mL

Compound	Inhibitory Ratio of NF-κ B Activation(%) Drug Concentration 1 μg/mL [1]	Inhibitory Ratio of NF-κ B Activation(%) Drug Concentration 10 μg/mL [2]	also measured
CC(C)(C)c1ccc(C(C)(C)C)c(NC(=O)c2cc(Cl)ccc2O)c1 [Compound No. 134]	89.1%	96.3%	
O=C(Nc1ccccc1C(F)(F)F)c1cc(Cl)ccc1O [drawing 562, reference compound]			inhibition at 0.1 µg/mL (Homo sapiens, HepG2, 4 h, 0.1 μg/ml, comparison table, reporter assay, read-out: Inhibitory Ratio of NF-κB Activation (%) 0.1 μg/ml): -18.4%; inhibition at 1 µg/mL (Homo sapiens, HepG2, 4 h, 1 μg/ml, comparison table, reporter assay, read-out: Inhibitory Ratio of NF-κB Activation (%) 1 μg/ml): 41.6%; inhibition at 10 µg/mL (Homo sapiens, HepG2, 4 h, 10 μg/ml, comparison table, reporter assay, read-out: Inhibitory Ratio of NF-κB Activation (%) 10 μg/ml): 92.9%
O=C(Nc1cc(Cl)ccc1Cl)c1cc(Cl)ccc1O [Compound No. 122]	95.1%	96.9%	
Cc1ccc(C(C)C)cc1NC(=O)c1cc(Cl)ccc1O [Compound No. 151]	85.8%	98.2%	
O=C(Nc1cc(C(F)(F)F)ccc1N1CCCCC1)c1cc(Cl)ccc1O [Compound No. 116]	90.0%	97.3%	
COc1ccc(C(C)(C)C)cc1NC(=O)c1cc(Cl)ccc1OC(C)=O [Compound No. 136]	91.0%	99.4%	
CC(=O)Oc1ccc(Cl)cc1C(=O)Nc1cc(C(C)(C)C)cc(C(C)(C)C)c1 [Compound No. 139]	90.8%	94.7%	
Cc1cc(C)cc(NC(=O)c2cc(Br)ccc2O)c1 [Compound No. 137]	86.3%	92.6%	
CC(C)(C)c1cc(C(=O)Nc2cc(C(F)(F)F)cc(C(F)(F)F)c2)c(O)c(C(C)(C)C)c1 [Compound No. 62]	37.0%	86.9%	
CCCCc1nc(NC(=O)c2cc(Br)ccc2O)sc1-c1ccccc1 [Compound No. 198, 5-Bromo-N-(4-butyl-5-phenylthiazol-2-yl)-2-hydroxybenzamide]			inhibition at 1 µg/mL [3]: 46.1%; inhibition at 10 µg/mL [4]: 88.7%
O=C(Nc1cc(C(F)(F)F)ccc1Br)c1cc(Cl)ccc1O [Compound No. 107]	94.9%	96.2%	
Cc1cc(Br)cc(C(=O)Nc2cc(C(F)(F)F)cc(C(F)(F)F)c2)c1O [Compound No. 258]	>99.9%		
COc1ccc(OC)c(NC(=O)c2cc3ccccc3cc2O)c1 [Compound No. 183]		86.8%	
O=C(Nc1cc(C(F)(F)F)cc(C(F)(F)F)c1)c1cc(Br)c(O)cc1O [Compound No. 54]		86.5%	
CCCCOc1ccc(OCCCC)c(NC(=O)c2cc(Cl)ccc2O)c1 [Compound No. 161]	94.2%	97.6%	
O=C(Nc1nc(-c2ccc(C(F)(F)F)cc2)cs1)c1cc(Cl)ccc1O [Compound No. 261, 5-Chloro-2-hydroxy-N-{4-[4-(trifluoromethyl)phenyl]thiazol-2-yl}benzamide]			inhibition at 1 µg/mL [3]: > 99.9%
Cc1ccc(O)c(C(=O)Nc2cc(Cl)cc(Cl)c2)c1 [Compound No. 131]	49.1%	88.7%	
Cc1cnc(NC(=O)c2cc(Br)ccc2O)s1 [Compound No. 190]		69.7%	
O=C(Nc1cc([N+](=O)[O-])ccc1Cl)c1cc(Cl)ccc1O [Compound No. 156]	93.8%	95.7%	
O=C(Nc1cc(C(F)(F)F)cc(C(F)(F)F)c1)c1cc(C(=O)N2CCCCC2)ccc1O [Compound No. 39, N-[3,5-Bis(trifluoromethyl)phenyl]-2-hydroxy-5-(piperidine-1-carbonyl)benzamide]			inhibition at 1 µg/mL [3]: 23.7%; inhibition at 10 µg/mL [4]: 82.2%
O=C(Nc1cc(C(F)(F)F)ccc1F)c1cc(Cl)ccc1O [Compound No. 87]	93.1%	95.9%	
O=C(Nc1cc(-c2ccccc2)[nH]n1)c1cc(Br)ccc1O [Compound No. 233]	26.6%	84.7%	
Cc1ccc(C(=O)Nc2cc(C(F)(F)F)cc(C(F)(F)F)c2)c(O)c1 [Compound No. 53]	93.3%	94.5%	

Compound	Inhibitory Ratio of NF-κ B Activation(%) Drug Concentration 1 μg/mL [1]	Inhibitory Ratio of NF-κ B Activation(%) Drug Concentration 10 μg/mL [2]	also measured
O=C(Nc1cc(F)cc(C(F)(F)F)c1)c1cc(Cl)ccc1O [Compound No. 85]	94.7%	98.9%	
CN1CCN(c2sc(NC(=O)c3cc(Br)ccc3O)nc2C(C)(C)C)CC1 [Compound No. 206, 5-Bromo-N-{4-[(1,1-dimethyl)ethyl]-5-(4-methylpiperazin-1-yl)thiazol-2-yl)-2-hydroxybenzamide]			inhibition at 1 µg/mL [3]: 36.3%; inhibition at 10 µg/mL [4]: 89.6%
O=C(Nc1cc(Cl)cc(Cl)c1)c1cc(Br)ccc1O [Compound No. 126]	77.1%	92.8%	
Cc1nc(NC(=O)c2cc(Br)ccc2O)sc1-c1cccc(C(F)(F)F)c1 [Compound No. 194, 5-Bromo-N-{4-methyl-5-[3-(trifluoromethyl)phenyl]thiazol-2-yl}-2-hydroxybenzamide]			inhibition at 10 µg/mL [4]: 71.7%
O=C(Nc1nc(-c2ccccc2)c(-c2ccccc2)s1)c1cc(Br)ccc1O [Compound No. 211]		67.0%	
CCOC(=O)c1sc(NC(=O)c2cc(Br)ccc2O)nc1-c1c(F)c(F)c(F)c(F)c1F [Compound No. 219, Ethyl 2-(5-bromo-2-hydroxybenzoyl)amino-4-(pentafluorophenyl)thiazole-5-carboxylate]			inhibition at 1 µg/mL [3]: 82.2%; inhibition at 10 µg/mL [4]: 96%
CCCCCCOc1ccc(S(C)(=O)=O)cc1NC(=O)c1cc(Cl)ccc1O [Compound No. 165]	95.9%	99.4%	
COc1ccc(C)c(NC(=O)c2cc(Cl)ccc2O)c1 [Compound No. 160]	69.6%	96.5%	
O=C(Nc1cc(C(F)(F)F)ccc1N1CCCC1)c1cc(Br)ccc1O [Compound No. 97]	95.8%	97.8%	
O=C(Nc1cc(Cl)cc(Cl)c1)c1cc(F)ccc1O [Compound No. 124]	94.2%	97.0%	
CN(C)c1ccc(O)c(C(=O)Nc2cc(C(F)(F)F)cc(C(F)(F)F)c2)c1 [Compound No. 44]		67.5%	
COc1ccc(C(F)(F)F)cc1NC(=O)c1cc(Cl)ccc1O [Compound No. 95]	91.8%	98.5%	
COc1ccc(-c2csc(NC(=O)c3cc(Cl)ccc3O)n2)cc1 [Compound No. 264, 5-Chloro-2-hydroxy-N-[4-(4-methoxyphenyl)thiazol-2-yl]benzamide]			inhibition at 1 µg/mL [3]: > 99.9%
COc1ccc(C(C)(C)c2ccccc2)cc1NC(=O)c1cc(Cl)ccc1O [Compound No. 173]	86.4%	98.3%	
Cc1ccc(Oc2ccc(C(F)(F)F)cc2NC(=O)c2cc(Cl)ccc2O)cc1 [Compound No. 117]	92.8%	92.6%	
O=C(Nc1cc(C(F)(F)F)cc(C(F)(F)F)c1)c1cc(I)ccc1O [Compound No. 7, N-[3,5-bis(trifluoromethyl)phenyl]-2-hydroxy-5-iodobenzamide]			inhibition at 1 µg/mL [3]: 86.6%; inhibition at 10 µg/mL [4]: 85.4%
CC(=O)c1sc(NC(=O)c2cc(Br)ccc2O)nc1-c1ccccc1 [Compound No. 214, 5-Bromo-N-(5-acetyl-4-phenylthiazol-2-yl)-2-hydroxybenzamide]			inhibition at 1 µg/mL [3]: 70.2%; inhibition at 10 µg/mL [4]: 95.9%
O=C(Nc1nc(-c2ccco2)c(-c2ccco2)o1)c1cc(Br)ccc1O [Compound No. 236, 5-Bromo-N-[4,5-bis(furan-2-yl)oxazol-2-yl]-2-hydroxybenzamide]			inhibition at 1 µg/mL [3]: 21.4%; inhibition at 10 µg/mL [4]: 56%
CC(C)NC(=O)c1sc(NC(=O)c2cc(Br)ccc2O)nc1-c1ccccc1 [Compound No. 222]	49.6%	91.3%	
CC(=O)Oc1ccc(Cl)cc1C(=O)Nc1cc(C(F)(F)F)ccc1C(F)(F)F [Compound No. 82]	94.0%	96.8%	
COc1ccc(OC)c(NC(=O)c2cc(Br)ccc2O)c1 [Compound No. 142]	32.4%	95.7%	
O=C(Nc1ccc(Cl)nc1)c1cc(Cl)ccc1O [compound 240]	14.3%	92.3%	
